In patent publication US5258386A (priority 1991, dated 1993):

How the values were obtained:
[1] = test system: maximal electroshock seizures (MES); test: Maximal electroshock seizure (MES) assay in rats, s.c. injection, tonic hindlimb extension (THE); assay type: in vivo, Male Sprague-Dawley rats; conditions: for % Responding (THE): s.c.; for ED50: sc, read-out: Anticonvulsant ED50
Procedure: The anticonvulsant activity of the present compounds was assessed by the method of inducing maximal electroshock seizures (MES) in rats using the standard testing protocol conditions hereinafter described:
Animals. Male Sprague-Dawley rats weighing 200-250 g obtained from Zivic Miller Laboratories, Alison Park, Pa., were used for all experiments. Upon delivery the animals were kept in individual pens housed in a temperature controlled laboratory. A standard 12-hour light-dark cycle was maintained. The animals were given food and water ad libitum.
Maximal electroshock seizure (MES) assay. Supramaximal (tonic hindlimb extension) seizures were induced in test rats by means of an electric shock apparatus. A current of 60 Hz and 50 mA was delivered transauricularly through miniature alligator clips attached to the pinna of each ear for 2.0 seconds. […] In general, MES causes a generalized convulsion characterized by an initial tonic forelimb extension (TFE) progressing immediately to tonic hindlimb extension (THE) followed by clonic jerking. The presence or absence of THE was recorded for each MES convulsion.
Experimental protocol. Two groups of animals with n=10 for each group were tested under the conditions described above. Compounds were administered to each test animal by a single subcutaneous injection. There were no signs of overt sedation, ataxia or motor impairment at any time during the MES assay after drug injection.

[2] = U.S. Pat. No. 4,552,962; cited from earlier work
[3] = in vivo, demethylation; dextrorphan is the major metabolite in man; cited from earlier work
[4] = Proconvulsant activity of dextromethorphan; conditions: doses above about 60 mg/kg, in mammals
[5] = elevated doses; cited from earlier work
[6] = in vivo; cited from earlier work
[7] = U.S. Pat. Nos. 4,898,860 and 4,906,638; cited from earlier work
[8] = in vivo; cited from earlier work; remark: listed apart in the source

## CN(C)c1ccc2c(c1)C13CCCCC1C(C2)N(C)CC3 (single isomer, unassigned; (+)) [Compound 7, (+)-3,3-Dimethylamino-17-methylmorphinan sesquitartrate]
[1]; 25 mg/kg, rat MES
  % Responding (THE): 65%
[1]; rat MES, single s.c. injection
  ED50: > 25 mg/kg

## COc1ccc2c(c1)[C@@]13CCCC[C@H]1[C@@H](C2)N(C)CC3 [Compound 1, (+)-3-methoxy-N-methylmorphinan]
[2]
  antitussive activity: potent antitussive agent
[3]
  metabolism to dextrorphan: metabolizes rapidly by demethylation in vivo
[1]; 15 mg/kg, rat MES
  % Responding (THE): 70%
[1]; 30 mg/kg, rat MES
  % Responding (THE): 70%
[1]; 60 mg/kg, rat MES
  % Responding (THE): 30%
[1]; about 60 mg/kg
  inhibits seizures: about 70%
[1]; rat MES, single s.c. injection
  ED50: 38 mg/kg
[4]
  proconvulsant activity: exhibits proconvulsant activity
[5]
  proconvulsant: becomes proconvulsant
[6]
  anticonvulsant activity: not very potent as an anticonvulsant agent
[7]
  potentiating effect on antiepileptic or antiseizure compounds: potentiating effect

## CN1CC[C@]23CCCC[C@H]2[C@H]1Cc1ccc(O)cc13 [Compound 2, (+)-3-hydroxy-N-methylmorphinan]
[8]
  behavioral side effects: harmful behavioral side effects
[1]; rat MES, single s.c. injection
  Anticonvulsant ED50: 5 mg/kg
[6]
  anticonvulsant activity: some anticonvulsant activity

## CN1CC[C@]23CCCC[C@H]2[C@H]1Cc1ccc(N)cc13.Cl.Cl [Compound 5, (+)-3-Amino-17-methylmorphinan di-HCl]
[1]; 12.5 mg/kg, rat MES
  % Responding (THE): 100%
[1]; 25 mg/kg, rat MES
  % Responding (THE): 40%
[1]; rat MES, single s.c. injection
  ED50: 25 mg/kg
